# Results as given in ChEMBL document CHEMBL3232928, “Fragment-to-hit-to-lead discovery of a novel pyridylurea scaffold of ATP competitive dual targeting type II topoisomerase inhibiting antibacterial agents” (J Med Chem, 2013).
# Experiments:
# Staphylococcus aureus [1] = assay: Antibacterial activity against methicillin-sensitive wild type Staphylococcus aureus assessed as growth inhibition after 18 to 24 hrs by CLSI broth microdilution method; assay type: functional
# [2] = Unbound fraction in human at 10 uM after 16 hrs by LC-MS/MS analysis; assay type: ADME; conditions: plasma
# [3] = Inhibition of ATPase activity in Escherichia coli ParC/ParE by ammonium molybdate/malachite green-based absorbance assay
# [4] = Antibacterial activity against wild type Haemophilus influenzae Rd KW20 ATCC 51907 assessed as growth inhibition after 18 to 24 hrs by CLSI broth microdilution method; assay type: functional
# [5] = Octanol-phosphate buffer partition coefficient, log D of the compound at pH 7.4 after 1 hr by shake flask method; assay type: physicochemical
# [6] = Inhibition of ATPase activity in Escherichia coli ParE by ammonium molybdate/malachite green-based absorbance assay
# Escherichia coli [7] = assay: Antibacterial activity against tolC efflux pump deficient Escherichia coli W3110 assessed as growth inhibition after 18 to 24 hrs by CLSI broth microdilution method; assay type: functional
# [8] = Inhibition of ATPase activity in Escherichia coli GyrA/GyrB by ammonium molybdate/malachite green-based absorbance assay
# DNA gyrase subunit B = DNA gyrase subunit B (Staphylococcus aureus, UniProt P0A0K8); assay: Inhibition of ATPase activity in Staphylococcus aureus GyrB tetramer in presence of Escherichia coli GyrA by ammonium molybdate/malachite green-based absorbance assay
# [9] = Solubility of the compound; assay type: physicochemical
# Escherichia coli [10] = assay: Antibacterial activity against wild type Escherichia coli W3110 assessed as growth inhibition after 18 to 24 hrs by CLSI broth microdilution method; assay type: functional
# [11] = Antibacterial activity against Streptococcus pneumoniae D39 NCTC 7466 assessed as growth inhibition after 18 to 24 hrs by CLSI broth microdilution method; assay type: functional
# Moraxella catarrhalis = assay: Antibacterial activity against wild type Moraxella catarrhalis ATCC 43617 assessed as growth inhibition after 18 to 24 hrs by CLSI broth microdilution method; assay type: functional
# Staphylococcus aureus [12] = assay: Antibacterial activity against methicillin-resistant and […] Staphylococcus aureus assessed as growth inhibition after 18 to 24 hrs by CLSI broth microdilution method; assay type: functional
# [13] = Clearance in rat plasma at 10 mg/kg, iv administered 15 mins of infusion measured for 0 to 24 hrs by LC-MS/MS analysis; assay type: ADME, organism-based; design: dose 10 mg/kg, route intravenous
# Chain of DNA gyrase subunit B (P0A0K8 whole entry): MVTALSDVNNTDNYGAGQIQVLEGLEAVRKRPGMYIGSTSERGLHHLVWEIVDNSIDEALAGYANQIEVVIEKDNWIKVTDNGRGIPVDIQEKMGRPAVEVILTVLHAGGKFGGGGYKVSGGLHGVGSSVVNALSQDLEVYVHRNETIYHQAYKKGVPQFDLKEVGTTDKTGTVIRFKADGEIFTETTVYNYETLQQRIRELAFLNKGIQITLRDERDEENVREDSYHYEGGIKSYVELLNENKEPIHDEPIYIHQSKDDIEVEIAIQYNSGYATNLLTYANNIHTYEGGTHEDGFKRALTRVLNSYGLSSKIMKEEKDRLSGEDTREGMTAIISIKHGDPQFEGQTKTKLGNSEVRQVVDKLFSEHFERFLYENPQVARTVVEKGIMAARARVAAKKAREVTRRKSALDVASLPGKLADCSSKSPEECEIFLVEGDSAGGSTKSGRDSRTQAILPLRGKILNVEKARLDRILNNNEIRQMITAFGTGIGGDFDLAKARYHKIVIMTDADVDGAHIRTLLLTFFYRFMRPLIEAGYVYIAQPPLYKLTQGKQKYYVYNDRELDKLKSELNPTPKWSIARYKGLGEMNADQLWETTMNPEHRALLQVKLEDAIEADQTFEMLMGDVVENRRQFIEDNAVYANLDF
SMILES,MIC (Staphylococcus aureus [1]),"fraction unbound at 16 h, 10 µM [2]",IC50 [3],MIC [4],logD at 1 h [5],IC50 [6],MIC (Escherichia coli [7]),IC50 [8],IC50 (DNA gyrase subunit B),solubility [9],MIC (Escherichia coli [10]),MIC [11],MIC (Moraxella catarrhalis),MIC (Staphylococcus aureus [12]),clearance [13]
CCNC(=O)Nc1cc(-c2nc(C(F)(F)F)cs2)c(-c2cncc(-c3c(C)noc3C)c2)cn1,> 9 µg/mL,0.045,4.8 µM,> 9 µg/mL,3.5,0.053 µM,> 9 µg/mL,0.068 µM,0.3 µM,6 µM,> 9 µg/mL,4.6 µg/mL,–,–,–
CCCNC(=O)Nc1ccccn1,–,–,–,–,–,–,–,–,> 1000 µM,–,–,–,–,–,–
CCNC(=O)Nc1cc(Cl)c(-c2cncc(C(=O)O)c2)cn1,> 64 µg/mL,–,4.3 µM,> 64 µg/mL,-1.1,0.022 µM,> 64 µg/mL,0.058 µM,0.13 µM,–,> 64 µg/mL,4 µg/mL,> 64 µg/mL,–,–
CCNC(=O)Nc1nc2ccccc2[nH]1,–,–,–,–,–,–,–,–,64 µM,–,–,–,–,–,–
CCN(CC)C(=O)Nc1ccccn1,–,–,–,–,–,–,–,–,38 µM,–,–,–,–,–,–
CCNC(=O)Nc1cc(-c2nc(C(F)(F)F)cs2)c(-c2nc3cccc(C(=O)O)c3s2)cn1,3.1 µg/mL,–,0.36 µM,12 µg/mL,0.73,< 0.01 µM,0.8 µg/mL,< 0.01 µM,< 0.01 µM,–,> 64 µg/mL,0.05 µg/mL,1.6 µg/mL,6.1 µg/mL,–
CCNC(=O)Nc1cc(Br)c(-c2cncc(C(=O)O)c2)cn1,> 9 µg/mL,–,4.8 µM,> 9 µg/mL,-1,0.053 µM,> 9 µg/mL,0.068 µM,0.3 µM,–,> 9 µg/mL,4.6 µg/mL,–,–,–
CCNC(=O)Nc1ccc(-c2ncc(C(=O)O)s2)cn1,> 64 µg/mL,–,8.8 µM,> 64 µg/mL,–,0.11 µM,–,0.24 µM,0.27 µM,–,> 64 µg/mL,64 µg/mL,> 64 µg/mL,–,–
CCNC(=O)Nc1cc(-c2nc(C(F)(F)F)cs2)c(-c2cncc(/C(N)=N/O)c2)cn1,0.36 µg/mL,0.35,2 µM,1.4 µg/mL,2.2,0.021 µM,0.18 µg/mL,0.032 µM,0.073 µM,4 µM,> 64 µg/mL,< 0.01 µg/mL,0.18 µg/mL,0.72 µg/mL,22 mL/min/kg
CCNC(=O)Nc1ccccc1,–,–,–,–,–,–,–,–,> 1000 µM,–,–,–,–,–,–
CCNC(=O)Nc1ccc(-c2cccnc2)cn1,> 48 µg/mL,–,80 µM,> 48 µg/mL,–,1.4 µM,> 48 µg/mL,2 µM,2.7 µM,–,> 48 µg/mL,–,> 48 µg/mL,> 64 µg/mL,–
CCNC(=O)Nc1ccc(-c2nc3cccc(C(N)=O)c3s2)cn1,> 64 µg/mL,–,12 µM,> 64 µg/mL,–,0.071 µM,> 64 µg/mL,0.094 µM,0.039 µM,< 1 µM,> 64 µg/mL,1 µg/mL,> 64 µg/mL,–,–
CNC(=O)Nc1ccccn1,–,–,–,–,–,–,–,–,100 µM,–,–,–,–,–,–
CCNC(=O)Nc1ccc(-c2nc(C(=O)O)cs2)cn1,> 64 µg/mL,–,–,> 64 µg/mL,–,–,–,–,3.6 µM,–,> 64 µg/mL,> 64 µg/mL,> 64 µg/mL,–,–
CCNC(=O)Nc1cc(-c2noc(C)n2)c(-c2cncc(C(=O)O)c2)cn1,> 64 µg/mL,–,–,> 64 µg/mL,-2.1,0.15 µM,> 64 µg/mL,–,–,–,> 64 µg/mL,> 64 µg/mL,–,–,–
O=C(NCC(F)(F)F)Nc1ccccn1,–,–,–,–,–,–,–,–,> 1000 µM,–,–,–,–,–,–
CCOC(=O)Nc1ccccn1,–,–,–,–,–,–,–,–,> 1000 µM,–,–,–,–,–,–
C#CCNC(=O)Nc1ccccn1,–,–,–,–,–,–,–,–,350 µM,–,–,–,–,–,–
